Test results taken from article PMC6443832, “Designing and Characterization of a Novel Delivery System for Improved Cellular Uptake by Brain Using Dendronised Apo-E-Derived Peptide” (Frontiers in Bioengineering and Biotechnology, 2019).

Assays:
bEnd.3 cells [1] = assay: Cellular uptake by laser scanning confocal microscopy (LSCM); settings: FITC-labeled; confluent bEnd.3 cells; 1 h treatment; formalin-fixed; LSCM 488 laser; qualitative, versus untreated control cells
Description: The bEnd.3 cells were treated at confluence with FITC-labeled products dissolved in DMEM and incubated for 1 h (the appropriate incubation time for dendrons with this type of cell line). The cells were then fixed with 3.7% (v/v) formalin, and analyzed by LSCM (Leica TCS SP5, UK), using a 488-visible laser source.

bEnd.3 cells [2] = assay: LDH release cytotoxicity assay; settings: confluent bEnd.3 cells; concentrations up to 400 μM; 24 and 48 h; absorbance 492 nm; relative to complete lysis control (100% lysis); mean of n = 6
Description: The bEnd.3 cells were cultured, according to ATCC-product sheet instruction, in DMEM high glucose medium with L-pyruvate, containing 10 % (v/v) fetal bovine serum and 1% (v/v) of 500 U/ml Penicillin/Streptomycin (Gibco, Germany). Cells were seeded at a density of 5 × 10^4 cells per cm^2 in 24-well plates then incubated at 37°C and 5% CO2 and the culture media was replaced every 3 days.
Experiments were performed when cells reached confluence. A range of concentrations (25, 50, 100, 150, 200, 300, and 400 μM) of each AMT-competent G0-, G1-dendron, and RMT-competent AEP-dendron were used in each experiment.
Lactate dehydrogenase (LDH) was measured using Promega CytoTox96® non-radioactive cytotoxicity assay kit (UK) after 24 and 48 h incubation. Absorbance was read spectrophotometrically at 492 nm and converted to a percentage of the total LDH released from the positive control (cells subjected to complete lysis) for 6 replicates.

bEnd.3 cells [3] = assay: Cellular uptake by flow cytometry; settings: FITC-labeled carrier in DMEM; confluent bEnd.3 cells; 1 h incubation; flow cytometry FL1-H channel; in comparison to negative control (untreated cells)
Description: The bEnd.3 cells were cultured and treated at confluence with 100 μL FITC-labeled products dissolved in DMEM for 1 h. The cells were washed with phosphate buffer solution twice and trypsinised and then harvested to be analyzed using BD C6 sampler flow cytometer (BD Accuri C6, Bioscience, UK). Samples of cells without treatment were also included as a control, and the analysis was carried out through the FL1-H channel for FITC detection.

| Molecule | cellular uptake (green fluorescence inside the cells) (bEnd.3 cells [1]) | cell membrane lysis (LDH release) as % of positive control (bEnd.3 cells [2]) [%] | cellular uptake (bEnd.3 cells [3]) [%] |
| --- | --- | --- | --- |
| O=C1OC2(c3ccc(O)cc3Oc3cc(O)ccc32)c2ccc(N=C=S)cc21 [FITC, fluorescein-5-isothiocyanate, reference compound] | negative results |  |  |
| NCCCC[C@H](N)C(=O)N[C@@H](Cc1ccccc1)C(N)=O [G0-dendron] | successful cellular uptake | < 10 | 38.7 |
| H-KLRKLRKRLLR-NH2 (C-terminus assumed) [AEP-dendron] |  | < 10 | 90.7 |
